Consider 45 compounds from US9790221B2, “Heteroaryl compounds as IRAK inhibitors and uses thereof” (Merck Patent GmbH, priority 2014, dated 2017).

For assay [1], the target named is IRAK1 (His-TEV-IRAK1 (194-712)) (Homo sapiens (Human), UniProt P51617). The assay can be described thus: IRAK1 enzymatic assay. In kind it is biochemical. The procedure: IRAK1 is a human purified recombinant enzyme (His-TEV-IRAK1 (194-712)). In this assay, IRAK-1 hydrolyses ATP and autophosphorylates. Measurement of IRAK-1 inhibition was performed in streptavidin coated 384well FlashPlate (PerkinElmer #SMP410A).
Sequence of IRAK1 (His-TEV-IRAK1 (194-712)) (P51617 194-712): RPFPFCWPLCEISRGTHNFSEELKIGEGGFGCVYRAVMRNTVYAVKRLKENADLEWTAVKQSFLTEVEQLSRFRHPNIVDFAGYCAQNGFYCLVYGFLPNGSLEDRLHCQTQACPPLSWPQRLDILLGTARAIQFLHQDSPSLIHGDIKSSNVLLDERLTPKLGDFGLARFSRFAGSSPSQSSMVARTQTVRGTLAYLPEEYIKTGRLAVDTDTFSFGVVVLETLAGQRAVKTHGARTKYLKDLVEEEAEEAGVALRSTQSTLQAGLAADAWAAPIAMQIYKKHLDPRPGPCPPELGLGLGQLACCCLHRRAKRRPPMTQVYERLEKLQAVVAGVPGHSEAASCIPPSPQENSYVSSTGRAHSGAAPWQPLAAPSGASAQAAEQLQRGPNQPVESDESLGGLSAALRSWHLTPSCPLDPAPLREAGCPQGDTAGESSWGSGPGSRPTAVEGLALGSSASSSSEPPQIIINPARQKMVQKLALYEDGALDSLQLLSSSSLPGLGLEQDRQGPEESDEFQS
His-TEV-IRAK-1 (15 ng/well), ATP (1 μM, [33P]ATP 0.25 μCi/well) and compounds in DMSO (range of concentrations from 20 µM to 1 nM) or controls (2% DMSO) were incubated for 3 hours at 30° C. in assay buffer: Hepes pH7.0 50 mM, Fatty acid-free BSA 0.1%, Dithiothreitol DTT 2 mM, MgCl2 10 mM, EGTA 0.5 mM, Triton-X-100 0.01%. Kinase reaction was stopped by addition of EDTA. Supernatant was discarded, plates were washed three times with 150 mM NaCl and radioactivity was then measured in a Microbeta Trilux reader.

Assay [2] addresses IRAK4 (Homo sapiens (Human), UniProt Q9NWZ3). The assay is described as follows: IRAK4 enzymatic assay. Type of assay: biochemical. The method, then: IRAK4 is a human purified recombinant enzyme ([…]. IRAK4 hydrolyses ATP, autophosphorylates and phosphorylates a Serine/Threonine generic peptidic substrate (STK: 61ST1BLC from CisBio International based in Bagnols/Cèze FR).
Measurement of IRAK-4 inhibition was performed in streptavidin coated 384well FlashPlate (PerkinElmer #SMP410A). His-TEV-IRAK4 (20 ng/well), ATP (2 μM, [^33P]ATP 0.25 µCi/well), STK1-biotin peptide (300 nM) and compounds in DMSO (range of concentrations from 20 µM to 1 nM) or controls (2% DMSO) were incubated for 3 hours at 30° C. in assay buffer: Hepes pH7.0 50 mM, Fatty acid-free BSA 0.1%, Dithiothreitol DTT 2 mM, MgCl2 10 mM, EGTA 0.5 mM, Tween-20 0.01%, MnCl2 5 mM.
Kinase reaction was stopped by addition of EDTA. Supernatant was discarded, plates were washed three times with 150 mM NaCl and radioactivity was then measured in a Microbeta Trilux reader.

Sequence of IRAK4 (Q9NWZ3 whole entry): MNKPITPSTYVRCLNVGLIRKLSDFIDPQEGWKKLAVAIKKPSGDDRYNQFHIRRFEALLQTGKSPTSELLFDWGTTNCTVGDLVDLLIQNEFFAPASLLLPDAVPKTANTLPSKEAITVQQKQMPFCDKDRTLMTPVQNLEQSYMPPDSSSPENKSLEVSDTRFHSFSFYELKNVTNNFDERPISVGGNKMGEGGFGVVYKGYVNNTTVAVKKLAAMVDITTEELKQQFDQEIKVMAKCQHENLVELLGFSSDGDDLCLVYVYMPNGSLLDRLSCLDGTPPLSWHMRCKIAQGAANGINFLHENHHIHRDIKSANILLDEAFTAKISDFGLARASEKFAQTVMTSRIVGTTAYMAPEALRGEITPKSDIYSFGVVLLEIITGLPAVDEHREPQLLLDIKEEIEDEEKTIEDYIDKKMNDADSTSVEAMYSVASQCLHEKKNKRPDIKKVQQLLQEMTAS

For `Cn1cc(-c2cccc(-c3ncc(-c4ccn(C)n4)c(N[C@H]4CC[C@H](O)CC4)n3)c2)cn1` [Example 147], the 50% inhibitory concentration (IC50) (in general, the concentration that inhibits the measured activity by half) in assay [1] was > 5000 nM; in assay [2], < 100 nM.
The corresponding values for `Cn1cc(-c2cccc(-c3ncc(-c4cnn(C)c4)c(N4CCNCC4)n3)c2)cn1` [Example 148] are > 5000 nM and 100 to 1000 nM.
The corresponding values for `Cn1cc(-c2cccc(-c3ncc(-c4cnn(C)c4)c(NC4CCC5CNCC54)n3)c2)cn1` (stereo not drawn) [Example 150] are > 5000 nM and 100 to 1000 nM.
The matching figures for `Cn1cc(-c2cccc(-c3ncc(-c4ccn(C)n4)c(NC4CCC5CNCC54)n3)c2)cn1` (stereo not drawn) [Example 154]: > 5000 nM and 100 to 1000 nM.
`Cn1cc(-c2cccc(-c3ncc(-c4cnn(C)c4)c(NC[C@H]4CC[C@@H](O)CC4)n3)c2)cn1` [Example 155]: the IC50 in assay [1] is > 5000 nM; in assay [2] it was < 100 nM.
The matching figures for `Cn1cc(-c2cccc(-c3ncc(-c4cnn(C)c4)c(NCC4CC4)n3)c2)cn1` [Example 157]: 100 to 1000 nM and < 100 nM.
With `Cn1cc(-c2cccc(-c3ncc(-c4cnn(C)c4)c(NCC4CCN(S(C)(=O)=O)C4)n3)c2)cn1` (stereo not drawn) [Example 158], the IC50 is 100 to 1000 nM in assay [1] and < 100 nM in assay [2].
For the compound `Cn1cc(-c2cccc(-c3ncc(-c4cnn(C)c4)c(NC4C5CCCC4CC(NS(C)(=O)=O)C5)n3)c2)cn1` (stereo not drawn) [Example 159], the figures for the concentration for half-maximal inhibition (IC50) in assay [1] and in assay [2] were > 5000 nM and < 100 nM, respectively.
Take `Cn1cc(-c2cccc(-c3ncc(-c4cnn(C)c4)c(NC4CC5(C4)CC(NS(C)(=O)=O)C5)n3)c2)cn1` (stereo not drawn) [Example 160]: the IC50 was 100 to 1000 nM in assay [1] and < 100 nM in assay [2].
Regarding `Cn1cc(-c2cccc(-c3ncc(-c4cnn(C)c4)c(NCC4CCC4)n3)c2)cn1` [Example 163], the IC50 in assay [1] was 100 to 1000 nM; in assay [2], < 100 nM.
The corresponding values for `Cn1cc(-c2cccc(-c3ncc(-c4cnn(C)c4)c(NC4CCC5CN(S(C)(=O)=O)CC54)n3)c2)cn1` (stereo not drawn) [Example 168] are > 5000 nM and < 100 nM.
The matching figures for `Cn1cc(-c2cccc(-c3ncc(-c4cnn(C)c4)c(NCC4CN(S(C)(=O)=O)CCO4)n3)c2)cn1` (stereo not drawn) [Example 172]: 100 to 1000 nM and < 100 nM.
As for `Cn1cc(-c2cccc(-c3ncc(-c4cnn(C)c4)c(NCC4[C@H]5CN(S(C)(=O)=O)C[C@@H]45)n3)c2)cn1` (stereo partly drawn) [Example 173], the IC50 is > 5000 nM in assay [1] and 100 to 1000 nM in assay [2].
With `Cn1cc(-c2cccc(-c3ncc(-c4cnn(C)c4)c(NC[C@H]4CCN(S(C)(=O)=O)C4)n3)c2)cn1` [Example 174], the IC50 in assay [1] was 100 to 1000 nM; in assay [2], < 100 nM.
The matching figures for `Cn1cc(-c2cccc(-c3ncc(-c4cnn(C)c4)c(NCCC4CCN(S(C)(=O)=O)C4)n3)c2)cn1` (stereo not drawn) [Example 175]: 100 to 1000 nM and 100 to 1000 nM.
In the case of `Cn1cc(-c2cccc(-c3ncc(-c4cnn(C)c4)c(NCCCCNS(C)(=O)=O)n3)c2)cn1` [Example 177], the results for the IC50 in assay [1] and in assay [2] were 100 to 1000 nM and < 100 nM, respectively.
The corresponding values for `Cn1cc(-c2cccc(-c3ncc(-c4cnn(C)c4)c(NC4CCCCN(S(C)(=O)=O)C4)n3)c2)cn1` (stereo not drawn) [Example 178] are 100 to 1000 nM and 100 to 1000 nM.
The matching figures for `Cn1cc(-c2cccc(-c3ncc(-c4cnn(C)c4)c(NC4CC(CO)(CO)C4)n3)c2)cn1` [Example 180]: 100 to 1000 nM and < 100 nM.
The matching figures for `Cn1cc(-c2cccc(-c3ncc(-c4cnn(C)c4)c(NC4CC5CC4N(S(C)(=O)=O)C5)n3)c2)cn1` (stereo not drawn) [Example 189]: > 5000 nM and > 5000 nM.
In the case of `Cn1cc(-c2cccc(-c3ncc(-c4cnn(C)c4)c(N4CC5CNCC5C4)n3)c2)cn1` (stereo not drawn) [Example 191], the IC50 in assay [1] is > 5000 nM; in assay [2], 100 to 1000 nM.
The corresponding values for `Cc1nnc(-c2cnc(-c3cccc(-c4cnn(C)c4)c3)nc2NCC2CN(S(C)(=O)=O)C2)s1` [Example 192] are 1000 to 5000 nM and < 100 nM.
The matching figures for `Cn1cc(-c2cccc(-c3ncc(-c4cnn(C)c4)c(NC4CC5CCC4N5)n3)c2)cn1` (stereo not drawn) [Example 193]: > 5000 nM and 100 to 1000 nM.
The corresponding values for `Cn1cc(-c2cccc(-c3ncc(-c4cnn(C)c4)c(N[C@H]4C[C@H](N)C4)n3)c2)cn1` [Example 197] are > 5000 nM and 100 to 1000 nM.
As to `CC(=O)NCC1CCC(Nc2nc(-c3cccc(-c4cnn(C)c4)c3)ncc2-c2cnn(C)c2)CC1` (stereo not drawn) [Example 198], the figures for the IC50 in assay [1] and in assay [2] were 1000 to 5000 nM and < 100 nM, respectively.
The matching figures for `Cn1cc(-c2cccc(-c3ncc(-c4cnn(C)c4)c(NCC4CCCC4N)n3)c2)cn1` (stereo not drawn) [Example 200]: 1000 to 5000 nM and 100 to 1000 nM.
The corresponding values for `Cn1cc(-c2cccc(-c3ncc(-c4cnn(C)c4)c(NC4CCC(CNS(C)(=O)=O)CC4)n3)c2)cn1` (stereo not drawn) [Example 201] are 1000 to 5000 nM and < 100 nM.
The matching figures for `CC(=O)N[C@H]1C[C@H](Nc2nc(-c3cccc(-c4cnn(C)c4)c3)ncc2-c2cnn(C)c2)C1` [Example 202]: 1000 to 5000 nM and 100 to 1000 nM.
For `Cn1cc(-c2cccc(-c3ncc(-c4cnn(C)c4)c(NCC4CCCC4NS(C)(=O)=O)n3)c2)cn1` (stereo not drawn) [Example 203], the IC50 in assay [1] was in the range of 1000 to 5000 nM; in assay [2] it was 100 to 1000 nM.
The matching figures for `CC(=O)NC1CCC(Nc2nc(-c3cccc(-c4cnn(C)c4)c3)ncc2-c2nnc(C)s2)CC1` (stereo not drawn) [Example 205]: 100 to 1000 nM and < 100 nM.
The corresponding values for `CC(=O)NC[C@H]1C[C@H](Nc2nc(-c3cccc(-c4cnn(C)c4)c3)ncc2-c2cnn(C)c2)C1` [Example 212, N-(3-{5-(1-Methyl-1H-pyrazol-4-yl)-2-[3-(1-methyl-1H-pyrazol-4-yl)-phenyl]-pyrimidin-4-ylamino}-cyclobutylmethyl)-acetamide] are > 5000 nM and 100 to 1000 nM.
The corresponding values for `Cn1cc(-c2cccc(-c3ncc(-c4cnn(C)c4)c(N4CCC(O)C4)n3)c2)cn1` (stereo not drawn) [Example 218] are 1000 to 5000 nM and 100 to 1000 nM.
In the case of `Cn1cc(-c2cccc(-c3ncc(-c4cnn(C)c4)c(N4CCCC(CO)C4)n3)c2)cn1` (stereo not drawn) [Example 220], the IC50 in assay [1] is 100 to 1000 nM; in assay [2], < 100 nM.
Regarding `CN(CCC#N)c1nc(-c2cccc(-c3cnn(C)c3)c2)ncc1-c1cnn(C)c1` [Example 222], the IC50 in assay [1] and in assay [2] was 100 to 1000 nM each time.
Take `Cn1cc(-c2cccc(-c3ncc(-c4cnn(C)c4)c(NC(C)(C)C)n3)c2)cn1` [Example 223]: the IC50 in assay [1] was 100 to 1000 nM; in assay [2] it was < 100 nM.
The corresponding values for `Cn1cc(-c2cccc(-c3ncc(-c4cnn(C)c4)c(NC[C@@H]4CCCC[C@H]4O)n3)c2)cn1` [Example 224] are 1000 to 5000 nM and < 100 nM.
The matching figures for `Cn1cc(-c2cccc(-c3ncc(-c4cnn(C)c4)c(N4CC(O)C4)n3)c2)cn1` [Example 226]: > 5000 nM and 100 to 1000 nM.
The matching figures for `Cn1cc(-c2cccc(-c3ncc(-c4cnn(C)c4)c(NCCC4(O)CCCC4)n3)c2)cn1` [Example 227]: 100 to 1000 nM and < 100 nM.
`Cn1cc(-c2cccc(-c3ncc(-c4cnn(C)c4)c(N4CCC(CCO)C4)n3)c2)cn1` (stereo not drawn) [Example 228]: the half-inhibitory concentration (IC50) in assay [1] is > 5000 nM; in assay [2], 1000 to 5000 nM.
The corresponding values for `Cn1cc(-c2cccc(-c3ncc(-c4cnn(C)c4)c(NCC4CCNCC4F)n3)c2)cn1` (stereo not drawn) [Example 229] are > 5000 nM and 100 to 1000 nM.
`Cn1cc(-c2cccc(-c3ncc(-c4cnn(C)c4)c(N4CCC[C@H]4CO)n3)c2)cn1` [Example 230]: the IC50 in assay [1] was > 5000 nM; in assay [2], 1000 to 5000 nM.
The matching figures for `Cn1cc(-c2cccc(-c3ncc(-c4cnn(C)c4)c(NCC4(F)CCNCC4)n3)c2)cn1` [Example 231]: > 5000 nM and 1000 to 5000 nM.
As to `COC(=O)[C@@H]1CCC[C@H](Nc2nc(-c3cccc(-c4cnn(C)c4)c3)ncc2-c2cnn(C)c2)C1` [Example 232], the IC50 is 100 to 1000 nM in assay [1] and < 100 nM in assay [2].
The corresponding values for `Cn1cc(-c2cccc(-c3ncc(-c4cnn(C)c4)c(NCC4CCN(S(C)(=O)=O)CC4F)n3)c2)cn1` (stereo not drawn) [Example 234] are 1000 to 5000 nM and < 100 nM.
The corresponding values for `CC(=O)N1CCC(CNc2nc(-c3cccc(-c4cnn(C)c4)c3)ncc2-c2cnn(C)c2)C(F)C1` (stereo not drawn) [Example 235] are 1000 to 5000 nM and 100 to 1000 nM.
On to `Cn1cc(-c2cccc(-c3ncc(-c4cnn(C)c4)c(NCC4(F)CCN(S(C)(=O)=O)CC4)n3)c2)cn1` [Example 236], for which the IC50 in assay [1] was 1000 to 5000 nM; in assay [2], 100 to 1000 nM.
